Measurements from PMC12612973, “Inhibition of Human Amylin Aggregation: In Silico and In Vitro Studies” (ACS Omega, 2025).
Several values for one entry are separate records, joined by “and”; a condition that tells them apart may be missing. Identical values can stand only once.

Legend:
[1] = target: T1, human amylin (hIAPP) (Homo sapiens, UniProt P10997); assay: Thioflavin T (ThT) fluorescence assay of amylin aggregation; type: biochemical; settings: for inhibition at 10 µM: read-out: ThT inhibition % (mean ± SEM), compound 10 μM, amylin 15 μM, 36 h incubation, 3 trials
T1 construct: purchased Bachem USA
T1 sequence (P10997 34-70 limits assumed): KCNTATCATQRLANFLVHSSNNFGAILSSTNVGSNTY
Method: (§1) A stock solution of amylin (1 mM) (purchased from Bachem USA), peptide sequence: […] amide (with disulfide bond between Cys2 and Cys7), was prepared in 100% hexafluoroisopropyl alcohol (HFIP) (purchased from Sigma-Aldrich) and stored at −20 °C. , Aliquots of amylin peptide were filtered through a 0.22 μm filter from the stock solution and freeze-dried. For kinetic experiments, 15 μM of amylin was prepared in 50 mM Tris-HCl buffer (pH 7.4), as investigated in previous studies by Chaari et al., , Samples of amylin were prepared in the presence or absence of inhibitors. Each compound was dissolved in DMSO and further diluted with the buffer used to solubilize the amylin. The final mixture contained 15 μM amylin, 10 μM of the test compound, 2% DMSO or 15 μM amylin, and 2% DMSO without the compound (negative control). Also 15 μM amylin, 10 μM of oleuropein aglycone and 2% DMSO was used as a positive control. The prepared solutions were incubated under physiological conditions (pH 7.4 and 37 °C) for amylin aggregation. Samples were incubated for 36 h to test for amylin aggregation, and measurements were conducted at different time points.
Amylin aggregation was monitored by characteristic changes in Thioflavin T (ThT) fluorescence intensity. A ThT stock solution (15 μM) was prepared in deionized water at pH 7.4. The amylin samples were mixed with the ThT solution and allowed to incubate. ThT fluorescence was measured using the PerkinElmer model LS 55 fluorescence spectrophotometer (PerkinElmer, USA), with an excitation wavelength of 440 nm and an emission wavelength of 480 nm. ,− The emission and excitation slits were set to 5 nm, and a 1 cm cuvette was used for all experiments. Nonspecific background fluorescence was subtracted from the samples using appropriate blanks in the absence of proteins. Each experiment was performed in triplicate.

[2] = target: T1, human amylin (hIAPP); assay: Kinetic analysis of amylin aggregation (ThT, two-step autocatalytic aggregation model); type: biochemical; settings: mean ± S.D.; for t 0 (time point when the aggregation starts): 10% of highest ThT fluorescence; for t 1/2 (aggregation halftime): 50% of highest ThT fluorescence; for t 1 (aggregation endpoint): 90% of highest ThT fluorescence; for k / k e (elongation constant) / k n (nucleation constant) / ρ (ratio of kn to k): ThT data, autocatalytic aggregation model
Method: Kinetic analysis was performed according to the model of autocatalytic aggregation. According to Sabaté et al., aggregation is a two-step process, comprising nucleation (described by the k n constant) and fibrillation phases (represented by the k e constant). Two constants (k n and k e) are calculated using the eq : 5 f=ρ{e^[(1+ρ)kt]−1}/{1+ρe^[(1+ρ)kt]} where k = k e a (where a represents the initial concentration of the aggregating peptide), f stands for a fraction of the fibrillar form in the system, and ρ denotes the dimensionless ratio of k n to k. The parameters k and ρ were calculated first, then k n and k e.
Data were normalized as a fraction of the highest fluorescence from the three trials and fitted into the model of autocatalytic aggregation. The same procedure was repeated for the remaining trials. The second calculation aimed to find the time parameters of the aggregation process: t 0 (time point when the aggregation starts), t 1/2 (aggregation halftime), and t 1 (aggregation endpoint). t 0, t 1/2, and t 1 were calculated as 10%, 50%, and 90% of the highest fluorescence measurements from the three trials, respectively. All calculations were performed using GraphPad Prism 9.5.1, Statistica 13.3.721.1, and Microsoft Excel 2304.

[3] = target: T1, human amylin (hIAPP); assay: Thioflavin T (ThT) fluorescence assay of amylin aggregation; type: biochemical; settings: read-out: IC50 of amylin aggregation inhibition
[4] = target: T1, human amylin (hIAPP); assay: Dynamic light scattering (DLS) assay of amylin aggregation; type: biochemical; settings: compound 10 μM, amylin 15 μM, 36 h incubation, 3 trials; read-out: DLS inhibition % (mean ± SEM)
Method: as §1
DLS (Zetasizer, Malvern) was used at a wavelength of 633 nm to measure the average diffusion coefficient distribution of amylin particles and the aggregation percentage. Samples were diluted 10-fold, and 50 μL was placed into a 96-well plate. The total light scattering intensity at a 90° angle was collected using a 10 s averaging acquisition time. Particle translational diffusion coefficients were calculated from autocorrelated light intensity data (usually 30–40 points) and converted to the hydrodynamic radius (R h) using the Stokes–Einstein equation. A distribution plot of intensity versus R h was calculated using the Sedfit 9.3 analysis software, and intensity-weighted mean R h values were obtained from each peak.

[5] = test system: Aβ; parameters: method as in Panek et al.; settings: ref Panek et al.; cited from earlier work

C/C=C1/C(O)OC=C(C(=O)OC)[C@H]1CC(=O)OCCc1ccc(O)c(O)c1 (mixture of isomers) [Oleuropein aglycone, reference compound]
ThT inhibition % (mean ± SEM) ([1]; compound 10 μM, amylin 15 μM, 36 h incubation, 3 trials): 82.3 ± 2.0%
t 0 (time point when the aggregation starts) [2]: 10.76 ± 0.25 h
t 1/2 (aggregation halftime) [2]: 19.67 ± 0.31 h
t 1 (aggregation endpoint) [2]: 28.83 ± 0.30 h
k [2]: 0.2366 ± 0.0075 h^–1
k e (elongation constant) [2]: 15773 ± 650 M^–1h^–1
k n (nucleation constant) [2]: 0.0022 ± 0.0005 h^–1
ρ (ratio of kn to k) [2]: 0.0093 ± 0.0002
k e (elongation constant) ([2]; listed as oleuropein aglycone): 15773 M^–1h^–1
IC50 [3]: 1000 nM

CCCC(C)N1CCN(CC(O)CNCc2ccc(OC)cc2)CC1 (stereo not shown) [Compound 1]
inhibition at 10 µM [1]: 13.1 ± 1.8%
inhibition at 10 µM [4]: 19.7 ± 2%

COc1ccc(CNCC(O)CN2CCN(c3ccccc3)CC2)cc1 (stereo not shown) [Compound 2]
inhibition at 10 µM [1]: 5 ± 0.7%
inhibition at 10 µM [4]: 6.9 ± 0.5%

COc1ccc(CNCC(O)CN2CCN(Cc3ccccc3)CC2)cc1 (stereo not shown) [Compound 3]
inhibition at 10 µM [1]: 8.8 ± 4.9%
inhibition at 10 µM [4]: 17.9 ± 1.4%

OC(CNCc1ccccc1)CN1CCN(C(c2ccccc2)c2ccccc2)CC1 (stereo not shown) [Compound 4]
inhibition at 10 µM [1]: 15.5 ± 0.7%
inhibition at 10 µM [4]: 20 ± 1.9%

COc1ccc(CNCC(O)CN2CCN(C(c3ccccc3)c3ccccc3)CC2)cc1 (stereo not shown) [Compound 5]
inhibition at 10 µM [1]: 12.1 ± 1.1%
inhibition at 10 µM [4]: 19.5 ± 2.2%

CC(C)(C)c1cccc(CNCC(O)CN2CCN(C(c3ccccc3)c3ccccc3)CC2)c1 (stereo not shown) [Compound 6]
inhibition at 10 µM [1]: > 50%
inhibition at 10 µM [4]: 30.3 ± 3.1%
t 0 (time point when the aggregation starts) [2]: 8.36 ± 0.56 h
t 1/2 (aggregation halftime) [2]: 16.61 ± 0.27 h
t 1 (aggregation endpoint) [2]: 25.27 ± 0.39 h
k [2]: 0.2488 ± 0.0157 h^–1
k e (elongation constant) [2]: 16585 M^–1h^–1 and 16585 ± 1051 M^–1h^–1
k n (nucleation constant) [2]: 0.0039 ± 0.0009 h^–1
ρ (ratio of kn to k) [2]: 0.0159±0.0044
IC50 [3]: 4110 nM
inhibition of Aβ aggregation in the ThT assay [5]: 77.2%

COc1ccc(CNCC(O)CN2CCN(C(c3ccc(F)cc3)c3ccc(F)cc3)CC2)cc1 (stereo not shown) [Compound 7]
inhibition at 10 µM [1]: 17 ± 0.7%
inhibition at 10 µM [4]: 18.6 ± 1.4%

CCCC(C)N1CCN(CCC(O)CNCc2ccc(OC)cc2)CC1 (stereo not shown) [Compound 8]
inhibition at 10 µM [1]: 20.8 ± 1%
inhibition at 10 µM [4]: 20.1 ± 2%

COc1ccc(CNCC(O)CCN2CCN(c3ccccc3)CC2)cc1 (stereo not shown) [Compound 9]
inhibition at 10 µM [1]: 4.3 ± 0.7%
inhibition at 10 µM [4]: 10 ± 0.5%
